A value given as a limit tells only on which side of the number the result lay.

In the first experiment the target is T1, full length murine FXR (Mus musculus, UniProt Q60641).
T1 sequence (Q60641 1-488): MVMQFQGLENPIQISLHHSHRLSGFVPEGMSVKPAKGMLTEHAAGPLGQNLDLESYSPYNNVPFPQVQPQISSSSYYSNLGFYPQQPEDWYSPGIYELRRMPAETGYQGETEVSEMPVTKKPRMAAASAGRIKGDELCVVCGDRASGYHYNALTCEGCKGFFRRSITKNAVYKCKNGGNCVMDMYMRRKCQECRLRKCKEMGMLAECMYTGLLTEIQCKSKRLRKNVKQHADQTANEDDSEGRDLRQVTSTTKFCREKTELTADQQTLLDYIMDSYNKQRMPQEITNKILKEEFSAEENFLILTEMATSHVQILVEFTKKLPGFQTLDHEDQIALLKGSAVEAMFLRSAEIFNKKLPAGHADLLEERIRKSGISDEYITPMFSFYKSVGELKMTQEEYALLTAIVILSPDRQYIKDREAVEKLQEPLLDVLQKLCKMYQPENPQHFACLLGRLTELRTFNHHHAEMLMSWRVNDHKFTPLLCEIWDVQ
T1 sequence (P28700 1-467 partner): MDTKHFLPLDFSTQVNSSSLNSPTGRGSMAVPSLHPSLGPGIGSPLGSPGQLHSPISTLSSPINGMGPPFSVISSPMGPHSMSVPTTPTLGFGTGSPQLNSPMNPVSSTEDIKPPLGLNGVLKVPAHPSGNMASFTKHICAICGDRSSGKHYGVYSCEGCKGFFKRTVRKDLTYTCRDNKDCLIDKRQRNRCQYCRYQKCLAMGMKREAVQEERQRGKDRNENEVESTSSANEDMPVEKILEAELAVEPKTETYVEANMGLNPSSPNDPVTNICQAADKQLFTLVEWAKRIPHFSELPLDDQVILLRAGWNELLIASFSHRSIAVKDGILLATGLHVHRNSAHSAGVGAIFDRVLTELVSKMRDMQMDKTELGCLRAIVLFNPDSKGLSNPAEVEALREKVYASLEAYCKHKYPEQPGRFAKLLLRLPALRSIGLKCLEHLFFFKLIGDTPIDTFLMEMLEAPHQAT
The experiment is described as follows: Reporter gene assay for FXR activation. The experiment is classed as cell-based. The following applies: Ganoderma constituents 10 μM; normalized to CDCA 25 μM. On the technique in general: A reporter such as luciferase makes a cellular process visible.
With `CC(C)[C@@H](C)/C=C/[C@@H](C)[C@H]1CC[C@@H]2[C@]1(C)CC[C@H]1[C@]23C=C[C@]2(C[C@@H](O)CC[C@]12C)OO3` [Compound 2, ergosterol peroxide], the “Induction of FXR-dependent transcription” value is listed as “reached statistical significance”.
The same measure, in the same setting: under `C[C@H](CC[C@H](O)C(C)(C)O)[C@H]1CC[C@@]2(C)C3=C(CC[C@]12C)[C@@]1(C)CCC(=O)C(C)(C)[C@@H]1CC3=O` [Compound 11, lucidumol A] stands “reached statistical significance”; under `C[C@H](CC[C@H](O)[C@](C)(O)CO)[C@H]1CC[C@@]2(C)C3=CC[C@H]4C(C)(C)C(=O)CC[C@]4(C)C3=CC[C@]12C` [Compound 13, ganodermanontriol], “reached statistical significance”; under `C[C@H](CCC=C(CO)CO)[C@H]1CC[C@@]2(C)C3=CC[C@H]4C(C)(C)C(=O)CC[C@]4(C)C3=CC[C@]12C` [Compound 14, ganoderiol F], “reached statistical significance”.
Take ganoderic acid TR [Compound 12]: the “Induction of FXR-dependent transcription” value is listed as “reached statistical significance”.

The same experiment, now with this note: dose-dependent FXR reporter activation; test concentrations 0.1-50 μM.
Broadly, the EC50 is the midpoint of the concentration-response curve. Lower therefore signals greater potency. ganoderic acid TR [Compound 12] returned an EC50 of more than 14 µM.

The same experiment, now with this note: pure compounds 10 μg/mL; compared with CDCA 25 μM.
With `COc1ccc(-c2oc3cc(OC)c(OC)c(O)c3c(=O)c2OC)cc1OC` [artemisetin], the “FXR induction (percent of CDCA)” value is “activated FXR significantly, but at lower extent than CDCA”.
With `COc1cc(CNC(=O)CCCCCCC(C)C)ccc1O` [dihydrocapsaicin], the “FXR induction (percent of CDCA)” value is “No activation”.
On the same count and under the same terms, under `C=CC(C)(C)c1cc2cc3c(cc2oc1=O)OC(C(C)(C)OC(C)=O)C3` (stereo not drawn) [rutamarin] stands “activated FXR significantly, but at lower extent than CDCA”.
